# Source: PubChem BioAssay AID330 (DTP/NCI, 2004)
# Values joined by “and” are separate entries in the source; they are usually repeats but may differ in a detail not shown here. Equal values may be shown once. Toxic doses and inconclusive results are not listed.
# Test system: P388 leukemia ip, CD2F1 mice, survival T/C
# Experiment: NCI In Vivo Anticancer Drug Screen. Data for tumor model P388 Leukemia (intraperitoneal) in CD2F1 (CDF1) mice
# Settings: endpoint: median survival time, higher = longer survival
# How it was run: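 Mice carrying the transplanted tumor received test compound or vehicle. Survival was recorded in each group, and the value is the treated-group measurement divided by that of the vehicle-treated control group.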
# [1] = dose: 60.0 mg/kg/injection, schedule: Q01DX005 (ip), vehicle: saline with Tween-80
# [2] = dose: 120.0 mg/kg/injection, schedule: Q01DX005 (ip), vehicle: saline with Tween-80
# [3] = dose: 240.0 mg/kg/injection, schedule: Q01DX005 (ip), vehicle: saline with Tween-80
# [4] = dose: 100.0 mg/kg/injection, schedule: Q01DX001 (ip), vehicle: saline with Tween-80
# [5] = dose: 200.0 mg/kg/injection, schedule: Q01DX001 (ip), vehicle: saline with Tween-80
# [6] = dose: 400.0 mg/kg/injection, schedule: Q01DX001 (ip), vehicle: saline with Tween-80
# [7] = dose: 60.0 mg/kg/injection, schedule: Q01DX005 (ip), vehicle: Klucel (hydroxypropylcellulose) (HPC)
# [8] = dose: 120.0 mg/kg/injection, schedule: Q01DX005 (ip), vehicle: Klucel (hydroxypropylcellulose) (HPC)
# [9] = dose: 240.0 mg/kg/injection, schedule: Q01DX005 (ip), vehicle: Klucel (hydroxypropylcellulose) (HPC)
# [10] = dose: 100.0 mg/kg/injection, schedule: Q01DX009 (ip), vehicle: saline with Tween-80
# [11] = dose: 200.0 mg/kg/injection, schedule: Q01DX009 (ip), vehicle: saline with Tween-80
# [12] = dose: 50.0 mg/kg/injection, schedule: Q01DX005 (ip), vehicle: Klucel (hydroxypropylcellulose) (HPC)
# [13] = dose: 100.0 mg/kg/injection, schedule: Q01DX005 (ip), vehicle: Klucel (hydroxypropylcellulose) (HPC)
# [14] = dose: 6.25 mg/kg/injection, schedule: Q01DX009 (ip), vehicle: Klucel (hydroxypropylcellulose) (HPC)
# [15] = dose: 50.0 mg/kg/injection, schedule: Q01DX009 (ip), vehicle: saline
# [16] = dose: 100.0 mg/kg/injection, schedule: Q01DX009 (ip), vehicle: saline
# [17] = dose: 200.0 mg/kg/injection, schedule: Q01DX009 (ip), vehicle: saline
# [18] = dose: 6.25 mg/kg/injection, schedule: Q01DX009 (ip), vehicle: saline with Tween-80
# [19] = dose: 12.5 mg/kg/injection, schedule: Q01DX009 (ip), vehicle: saline with Tween-80
# [20] = dose: 25.0 mg/kg/injection, schedule: Q01DX009 (ip), vehicle: saline with Tween-80
# [21] = dose: 50.0 mg/kg/injection, schedule: Q01DX009 (ip), vehicle: saline with Tween-80
# [22] = dose: 50.0 mg/kg/injection, schedule: Q01DX005 (ip), vehicle: saline with Tween-80
# [23] = dose: 100.0 mg/kg/injection, schedule: Q01DX005 (ip), vehicle: saline with Tween-80
# [24] = dose: 200.0 mg/kg/injection, schedule: Q01DX005 (ip), vehicle: saline with Tween-80
# [25] = dose: 100.0 mg/kg/injection, schedule: Q01DX001 (ip), vehicle: Klucel (hydroxypropylcellulose) (HPC)
# [26] = dose: 200.0 mg/kg/injection, schedule: Q01DX001 (ip), vehicle: Klucel (hydroxypropylcellulose) (HPC)
# [27] = dose: 25.0 mg/kg/injection, schedule: Q01DX005 (ip), vehicle: saline
# [28] = dose: 50.0 mg/kg/injection, schedule: Q01DX005 (ip), vehicle: saline
# [29] = dose: 25.0 mg/kg/injection, schedule: Q01DX009 (ip), vehicle: saline
# [30] = dose: 6.25 mg/kg/injection, schedule: Q01DX009 (ip), vehicle: saline
# [31] = dose: 12.5 mg/kg/injection, schedule: Q01DX009 (ip), vehicle: saline
structure (smiles),measurement,setting,value
O=C(NC(O)C(=O)O)c1ccc(Cl)cc1 (stereo unspecified),T/C,[1],97 % of control
same,T/C,[2],95 % of control
same,T/C,[3],97 % of control
Cn1c(=O)c2cc(C#N)c(N)nc2n(C)c1=O,T/C,"dose: 75.0 mg/kg/injection, schedule: Q01DX009 (ip), vehicle: saline with Tween-80",104 % of control
same,T/C,"dose: 150.0 mg/kg/injection, schedule: Q01DX009 (ip), vehicle: saline with Tween-80",96 % of control
same,T/C,"dose: 300.0 mg/kg/injection, schedule: Q01DX009 (ip), vehicle: saline with Tween-80",93 % of control
Oc1ccc2ccccc2c1/C=N/c1nc(-c2ccc(Cl)cc2)cs1,T/C,[4],89 % of control
same,T/C,[5],90 % of control
same,T/C,[6],92 % of control
Cc1ccc2cccc(OC(=O)Nc3cccc(C(F)(F)F)c3)c2n1,T/C,[7],101 % of control
same,T/C,[8],107 % of control
same,T/C,[9],105 % of control
CN(C)CCN(C)C,T/C,[10],100 % of control
same,T/C,[11],95 % of control
CCN(CC)C(=S)C(C)=C(Sc1ccccc1)Sc1ccccc1,T/C,[12],100 % of control
same,T/C,[13],99 % of control
same,T/C,"dose: 200.0 mg/kg/injection, schedule: Q01DX005 (ip), vehicle: Klucel (hydroxypropylcellulose) (HPC)",99 % of control
CC(=O)[O][Hg][c]1c(N)c(Cl)cc(C)c1F,T/C,"dose: 3.12 mg/kg/injection, schedule: Q01DX009 (ip), vehicle: Klucel (hydroxypropylcellulose) (HPC)",91 % of control
same,T/C,[14],86 % of control
CC/C=C(\CC)C(=O)O,T/C,[15],90 % of control
same,T/C,[16],100 % of control
same,T/C,[17],102 % of control
CC(=O)Oc1cccc2c1C(=O)C1CC=CC(OC(C)=O)C1C2=O (stereo unspecified),T/C,[7],100 % of control
same,T/C,[8],100 % of control
same,T/C,[9],100 % of control
COc1ccc(/C=C2/SC(=S)N(C(C)C)C2=O)cc1OC,T/C,[18],88 % of control
same,T/C,[19],90 % of control
same,T/C,[20],94 % of control
same,T/C,[21],88 % of control
O=C1C(CCl)=C(c2ccccc2)S(=O)(=O)c2ccccc21,T/C,[22],109 % of control
same,T/C,[23],114 % of control
same,T/C,[24],114 % of control
NC(=S)N/N=C/c1c(Br)nc2n1CCS2,T/C,[25],99 % of control
same,T/C,[26],92 % of control
same,T/C,"dose: 400.0 mg/kg/injection, schedule: Q01DX001 (ip), vehicle: Klucel (hydroxypropylcellulose) (HPC)",93 % of control
CN1C(=O)N(C)C2(C(=O)N(C)C(=S)N2C)N(C)C1=O,T/C,[1],95 % of control
same,T/C,[2],103 % of control
same,T/C,[3],102 % of control
O=C1C(Br)=CC2C1C1C=CC2(Br)C1=O (stereo unspecified),T/C,"dose: 30.0 mg/kg/injection, schedule: Q01DX005 (ip), vehicle: saline with Tween-80",105 % of control and 107 % of control
same,T/C,[1],111 % of control and 112 % of control and 118 % of control
same,T/C,[2],101 % of control and 111 % of control and 113 % of control
same,T/C,[3],120 % of control
CC1CCC2N(C1)CC1C3(O)CC45OC6(O)C(O)CCC4(C)C6CCC5C3(O)CC(O)C1(O)C2(C)O (stereo unspecified),T/C,"dose: 3.12 mg/kg/injection, schedule: Q01DX009 (ip), vehicle: saline with Tween-80",103 % of control
same,T/C,[18],112 % of control
same,T/C,[19],98 % of control
same,T/C,[27],114 % of control
same,T/C,[20],103 % of control
same,T/C,[28],109 % of control
same,T/C,[21],98 % of control
same,T/C,"dose: 100.0 mg/kg/injection, schedule: Q01DX005 (ip), vehicle: saline",107 % of control
CSCCCCCCCCCCSC,T/C,[15],99 % of control
same,T/C,[16],100 % of control
same,T/C,[17],99 % of control
COc1cc(N(CCCl)CCCl)c(OC)cc1C=Nc1ccccc1C(=O)O,T/C,"dose: 3.12 mg/kg/injection, schedule: Q01DX009 (ip), vehicle: suspension in saline",114 % of control
same,T/C,[29],182 % of control
COCc1nnc2c(N)nccn12,T/C,[25],99 % of control
same,T/C,[26],93 % of control
COc1cccc(C)c1NC1=NCCO1,T/C,"dose: 0.78 mg/kg/injection, schedule: Q04DX003 (ip), vehicle: saline with Tween-80",100 % of control
same,T/C,"dose: 1.56 mg/kg/injection, schedule: Q04DX003 (ip), vehicle: saline with Tween-80",100 % of control
same,T/C,"dose: 3.13 mg/kg/injection, schedule: Q04DX003 (ip), vehicle: saline with Tween-80",104 % of control
CCCCCN(CCCCC)CCCNc1c2c(nc3ccc(Cl)cc13)CCCC2,T/C,"dose: 12.5 mg/kg/injection, schedule: Q01DX005 (ip), vehicle: saline",95 % of control
same,T/C,[27],104 % of control
same,T/C,[28],104 % of control and 107 % of control
Cc1c(N=Nc2cccc(Cl)c2Cl)c(-c2ccccc2)nn1C(N)=S,T/C,"dose: 25.0 mg/kg/injection, schedule: Q01DX005 (ip), vehicle: Klucel (hydroxypropylcellulose) (HPC)",94 % of control
same,T/C,[12],99 % of control
same,T/C,[13],96 % of control
Cc1ccc(Cl)cc1NS(=O)(=O)c1ccc2ccccc2c1,T/C,"dose: 100.0 mg/kg/injection, schedule: Q04DX003 (ip), vehicle: saline with Tween-80",100 % of control
same,T/C,"dose: 200.0 mg/kg/injection, schedule: Q04DX003 (ip), vehicle: saline with Tween-80",109 % of control
same,T/C,"dose: 400.0 mg/kg/injection, schedule: Q04DX003 (ip), vehicle: saline with Tween-80",104 % of control
CC(=O)N(C(C)=O)/C(=C/c1cn(C(C)=O)c2ccccc12)C(=O)c1ccc(C)cc1,T/C,[4],105 % of control
same,T/C,[5],104 % of control
same,T/C,[6],98 % of control
CC(C)(C#N)NNC(N)=S,T/C,"dose: 3.12 mg/kg/injection, schedule: Q01DX009 (ip), vehicle: saline",103 % of control
same,T/C,[30],100 % of control
same,T/C,[31],87 % of control and 93 % of control
same,T/C,"dose: 50.0 mg/kg/injection, schedule: Q04DX003 (ip), vehicle: saline",96 % of control
same,T/C,"dose: 100.0 mg/kg/injection, schedule: Q04DX003 (ip), vehicle: saline",96 % of control
same,T/C,"dose: 200.0 mg/kg/injection, schedule: Q04DX003 (ip), vehicle: saline",94 % of control
Oc1ccc2ccccc2c1/C=C/c1ccc2c(Br)cc(Br)c(O)c2n1,T/C,[22],99 % of control
same,T/C,[23],106 % of control
same,T/C,[24],88 % of control
CCCCc1ccc2nccc(N/N=C/c3ccc(OC)c4ccccc34)c2c1,T/C,"dose: 3.12 mg/kg/injection, schedule: Q01DX005 (ip), vehicle: Klucel (hydroxypropylcellulose) (HPC)",100 % of control
same,T/C,"dose: 6.25 mg/kg/injection, schedule: Q01DX005 (ip), vehicle: Klucel (hydroxypropylcellulose) (HPC)",100 % of control
same,T/C,"dose: 12.5 mg/kg/injection, schedule: Q01DX005 (ip), vehicle: Klucel (hydroxypropylcellulose) (HPC)",93 % of control and 94 % of control
same,T/C,[12],87 % of control
O=c1c2ccccc2n(-c2ccccc2)c2ccc(Cl)cc12,T/C,[22],86 % of control
same,T/C,[23],90 % of control
Cc1cc(C(F)(F)F)nc(NNc2nc(C)cc(C(F)(F)F)n2)n1,T/C,[21],102 % of control
same,T/C,[10],88 % of control
same,T/C,[11],88 % of control
CCCCOc1ccc(C(=O)OCCNC2CCCCC2)cc1N,T/C,[14],100 % of control
same,T/C,"dose: 12.5 mg/kg/injection, schedule: Q01DX009 (ip), vehicle: Klucel (hydroxypropylcellulose) (HPC)",101 % of control
same,T/C,"dose: 25.0 mg/kg/injection, schedule: Q01DX009 (ip), vehicle: Klucel (hydroxypropylcellulose) (HPC)",93 % of control
same,T/C,"dose: 50.0 mg/kg/injection, schedule: Q01DX009 (ip), vehicle: Klucel (hydroxypropylcellulose) (HPC)",91 % of control
O=C(C[n+]1ccc2ccccc2c1)c1ccccc1,T/C,[30],111 % of control
same,T/C,[19],113 % of control
same,T/C,[31],108 % of control
same,T/C,[20],104 % of control
same,T/C,[29],98 % of control
same,T/C,[21],104 % of control
same,T/C,[15],110 % of control
